Literature values as cited in PMC2936243 (Journal of neurochemistry, 2010).
Marks after values point to notes of the source that are not given here.

Experiments:
Conditions in all cases: cited from earlier work
[1] = tested on: GABAARs that contain the β3 subunit
[2] = tested on: unknown site in brain tissue from α7 knockout mice
[3] = tested on: nAChR subtypes that contain the α1 and α9 subunits
[4] = tested on: α3* and α6* containing nAChR subtypes

α-bungarotoxin [α-BgTx]
binding to GABAARs [1]: binds to a subset of GABAARs that contain the β3 subunit
residual binding in α7 knockout brain tissue [2]: significant residual α-BgTx binding to an unknown site
binding to α1 and α9 containing nAChRs [3]: also binds to non-α7 nAChR subtypes including those that contain the α1 and α9 subunits

monoiodinated α-conotoxin MII [[^125I]-α-CTx MII]
binding selectivity [4]: selectively binds to α3* and α6* containing nAChR subtypes
